What all share (format): functional
In test [1] the test system is Staphylococcus aureus. In words: Induction of Ppbp2::lacZ gene expression in Staphylococcus aureus SH1000 at 13.4 ug/ml after 2 hrs by beta-galactosidase reporter gene assay relative to untreated control.
Test [2] relates to Staphylococcus aureus. Nature of the test: Induction of PvraSr::lacZ gene expression in Staphylococcus aureus SH1000 at 13.4 ug/ml after 2 hrs by beta-galactosidase reporter gene assay relative to untreated control.
Test [3] deals with Staphylococcus aureus. Nature of the test: Induction of PtcaA::lacZ gene expression in Staphylococcus aureus SH1000 at 13.4 ug/ml after 2 hrs by beta-galactosidase reporter gene assay relative to untreated control.
Test [4] relates to Staphylococcus aureus. In words: Induction of PlytR::lacZ gene expression in Staphylococcus aureus SH1000 at 13.4 ug/ml after 2 hrs by beta-galactosidase reporter gene assay relative to untreated control. Background: In a reporter assay the amount or activity of a reporter protein is the signal.
Test [5] has as its system Staphylococcus aureus. In words: Induction of PsgtB::lacZ gene expression in Staphylococcus aureus SH1000 at 13.4 ug/ml after 2 hrs by beta-galactosidase reporter gene assay relative to untreated control.
For test [6], the system named is Staphylococcus aureus. Nature of the test: Antimicrobial activity against beta-lactamase producing Staphylococcus aureus SH1000.
In test [7] the test system is Staphylococcus aureus. In words: Induction of Ppbp2::lacZ gene expression in Staphylococcus aureus SH1000 at 3 ug/ml after 2 hrs by beta-galactosidase reporter gene assay relative to untreated control.
Test [8] concerns Staphylococcus aureus. In words: Induction of PvraSr::lacZ gene expression in Staphylococcus aureus SH1000 at 3 ug/ml after 2 hrs by beta-galactosidase reporter gene assay relative to untreated control.
The test system of test [9] is Staphylococcus aureus. In words: Induction of PtcaA::lacZ gene expression in Staphylococcus aureus SH1000 at 3 ug/ml after 2 hrs by beta-galactosidase reporter gene assay relative to untreated control.
Test [10] has as its system Staphylococcus aureus. Nature of the test: Induction of PlytR::lacZ gene expression in Staphylococcus aureus SH1000 at 3 ug/ml after 2 hrs by beta-galactosidase reporter gene assay relative to untreated control.
Test [11] concerns Staphylococcus aureus. In words: Induction of PsgtB::lacZ gene expression in Staphylococcus aureus SH1000 at 3 ug/ml after 2 hrs by beta-galactosidase reporter gene assay relative to untreated control.
Test [12] concerns Staphylococcus aureus. In words: Induction of Ppbp2::lacZ gene expression in Staphylococcus aureus SH1000 at 150 ug/ml after 2 hrs by beta-galactosidase reporter gene assay relative to untreated control.
The subject of test [13] is Staphylococcus aureus. Nature of the test: Induction of PvraSr::lacZ gene expression in Staphylococcus aureus SH1000 at 150 ug/ml after 2 hrs by beta-galactosidase reporter gene assay relative to untreated control.
For test [14], the system named is Staphylococcus aureus. Nature of the test: Induction of PtcaA::lacZ gene expression in Staphylococcus aureus SH1000 at 150 ug/ml after 2 hrs by beta-galactosidase reporter gene assay relative to untreated control.
In test [15] the test system is Staphylococcus aureus. In words: Induction of PlytR::lacZ gene expression in Staphylococcus aureus SH1000 at 150 ug/ml after 2 hrs by beta-galactosidase reporter gene assay relative to untreated control.
In test [16] the test system is Staphylococcus aureus. Nature of the test: Induction of PsgtB::lacZ gene expression in Staphylococcus aureus SH1000 at 150 ug/ml after 2 hrs by beta-galactosidase reporter gene assay relative to untreated control.
Test [17] deals with Staphylococcus aureus. In words: Induction of Ppbp2::lacZ gene expression in Staphylococcus aureus SH1000 at 2.5 ug/ml after 2 hrs by beta-galactosidase reporter gene assay relative to untreated control.
Test [18] relates to Staphylococcus aureus. Nature of the test: Induction of PvraSr::lacZ gene expression in Staphylococcus aureus SH1000 at 2.5 ug/ml after 2 hrs by beta-galactosidase reporter gene assay relative to untreated control.
Test [19] concerns Staphylococcus aureus. Nature of the test: Induction of PtcaA::lacZ gene expression in Staphylococcus aureus SH1000 at 2.5 ug/ml after 2 hrs by beta-galactosidase reporter gene assay relative to untreated control.
The test system of test [20] is Staphylococcus aureus. Nature of the test: Induction of PlytR::lacZ gene expression in Staphylococcus aureus SH1000 at 2.5 ug/ml after 2 hrs by beta-galactosidase reporter gene assay relative to untreated control.
Test [21] has as its system Staphylococcus aureus. Nature of the test: Induction of PsgtB::lacZ gene expression in Staphylococcus aureus SH1000 at 2.5 ug/ml after 2 hrs by beta-galactosidase reporter gene assay relative to untreated control.
The subject of test [22] is Staphylococcus aureus. In words: Induction of Ppbp2::lacZ gene expression in Staphylococcus aureus SH1000 at 1 ug/ml after 2 hrs by beta-galactosidase reporter gene assay relative to untreated control.
Test [23] relates to Staphylococcus aureus. Nature of the test: Induction of PvraSr::lacZ gene expression in Staphylococcus aureus SH1000 at 1 ug/ml after 2 hrs by beta-galactosidase reporter gene assay relative to untreated control.
Test [24] has as its system Staphylococcus aureus. Nature of the test: Induction of PtcaA::lacZ gene expression in Staphylococcus aureus SH1000 at 1 ug/ml after 2 hrs by beta-galactosidase reporter gene assay relative to untreated control.
The test system of test [25] is Staphylococcus aureus. In words: Induction of PlytR::lacZ gene expression in Staphylococcus aureus SH1000 at 1 ug/ml after 2 hrs by beta-galactosidase reporter gene assay relative to untreated control.
Test [26] deals with Staphylococcus aureus. Nature of the test: Induction of PsgtB::lacZ gene expression in Staphylococcus aureus SH1000 at 1 ug/ml after 2 hrs by beta-galactosidase reporter gene assay relative to untreated control.

This is an account of results in ChEMBL document CHEMBL1275483, “Staphylococcus aureus cell wall stress stimulon gene-lacZ fusion strains: potential for use in screening for cell wall-active antimicrobials” (2008).

In brackets after ≈: the same amount, converted by molar mass. Where a SMILES comes first, the peptide text is derived from it. Bridges are numbered along the chain shown (N, C = ends). [ ]: non-standard residue; d: D form. The star is where a group is joined. Ileψ(thiazoline)Cys = CC[C@H](C)[C@H](N)C1=N[C@H](C(=O)*)CS1; dOrn = NCCC[C@@H](N)C(=O)O

The term MIC denotes the smallest concentration in the dilution series that meets the test's criterion for growth inhibition. The low end stands for greater potency, the high end for weaker potency. Turning to `CC[C@H](C)[C@H](N)C1=N[C@H](C(=O)N[C@@H](CC(C)C)C(=O)N[C@H](CCC(=O)O)C(=O)N[C@H](C(=O)N[C@H]2CCCCNC(=O)[C@H](CC(N)=O)NC(=O)[C@@H](CC(=O)O)NC(=O)[C@H](Cc3cnc[nH]3)NC(=O)[C@@H](Cc3ccccc3)NC(=O)[C@H]([C@@H](C)CC)NC(=O)[C@@H](CCCN)NC2=O)[C@@H](C)CC)CS1` [BACITRACIN] ({Ileψ(thiazoline)Cys}-L[dE]IK[dOrn]I[dF]H[dD]N; lactam 4-C), the “fold change (FC)” value with Staphylococcus aureus [1] came to 3.7; with Staphylococcus aureus [2], 1.92; in the test on Staphylococcus aureus [3], 3.99; in the test on Staphylococcus aureus [4] it was 1.94; with Staphylococcus aureus [5], 4.63. The MIC with Staphylococcus aureus [6] is 2 µg/mL (≈ 1.41 µM).
In the case of `O=C(N[C@H](CO)[C@H](O)c1ccc([N+](=O)[O-])cc1)C(Cl)Cl` [CHLORAMPHENICOL], the “fold change (FC)” value in the test with Staphylococcus aureus [7] amounted to 0.94; in the test with Staphylococcus aureus [8] it was 0.88; with Staphylococcus aureus [9], 1.04; with Staphylococcus aureus [10], 1.07; with Staphylococcus aureus [11] it was 0.93. The minimum inhibitory concentration (MIC) in the test on Staphylococcus aureus [6] turned out to be 0.5 µg/mL (≈ 1.55 µM).
Consider `N[C@@H]1CONC1=O` [CYCLOSERINE], for which the “fold change (FC)” value is 3.41 in the test with Staphylococcus aureus [12]; 4.08 in the test on Staphylococcus aureus [13]; 4.6 in the test on Staphylococcus aureus [14]; 3.13 in the test on Staphylococcus aureus [15]; 15.63 in the test on Staphylococcus aureus [16]. In the test on Staphylococcus aureus [6], the lowest concentration to inhibit growth (MIC) was 1 µg/mL (≈ 9.79 µM).
As to `CC[C@H]1OC(=O)[C@H](C)[C@@H](O[C@H]2C[C@@](C)(OC)[C@@H](O)[C@H](C)O2)[C@H](C)[C@@H](O[C@@H]2O[C@H](C)C[C@H](N(C)C)[C@H]2O)[C@](C)(O)C[C@@H](C)C(=O)[C@H](C)[C@@H](O)[C@]1(C)O` [ERYTHROMYCIN], the “fold change (FC)” value in the test with Staphylococcus aureus [17] is 1.15; in the test on Staphylococcus aureus [18], 0.8; in the test with Staphylococcus aureus [19], 1.12; in the test on Staphylococcus aureus [20], 1.04; in the test with Staphylococcus aureus [21] it was 0.93. Also, it took 2 µg/mL (≈ 2.73 µM) to inhibit growth in the test with Staphylococcus aureus [6] (MIC).
For the compound `C=C(NC(=O)[C@@H](NC(=O)[C@H](Cc1cnc[nH]1)NC(=O)[C@@H](NC(=O)[C@H](CO)NC(=O)[C@@H]1CS[C@@H](C)[C@H]2NC(=O)C(=C)NC(=O)[C@H](NC(=O)[C@H](CCCCN)NC(=O)[C@H](CCSC)NC(=O)[C@H](CC(N)=O)NC(=O)[C@@H]3CS[C@@H](C)[C@@H](NC(=O)[C@H](CCCNN)NC(=O)[C@@H]4CS[C@@H](C)[C@@H](NC(=O)[C@@H]5CSC[C@@H](NC(=O)/C(=C\C)NC(=O)[C@@H](N)[C@@H](C)CC)C(=O)N[C@@H]([C@@H](C)CC)C(=O)NC(=C)C(=O)N[C@@H]([C@@H](C)CC)C(=O)N5)C(=O)N5CCC[C@H]5C(=O)NCC(=O)N4)C(=O)NCC(=O)N[C@@H](C)C(=O)N[C@@H]([C@@H](C)CC)C(=O)N[C@@H](CCSC)C(=O)NCC(=O)N3)[C@H](C)SC[C@H](NC2=O)C(=O)N[C@H](Cc2cnc[nH]2)C(=O)N1)[C@@H](C)CC)C(C)C)C(=O)N[C@@H](CCCCN)C(=O)O` [NISIN], the “fold change (FC)” value is reported as 1.02 in the test on Staphylococcus aureus [22]; 0.57 in the test on Staphylococcus aureus [23]; 0.97 in the test with Staphylococcus aureus [24]; 1.21 in the test on Staphylococcus aureus [25]; 1.02 in the test with Staphylococcus aureus [26].
